# Peptide text beside a SMILES is read from it.
row,Compound,logP
1,Clc1cccc(-c2cc(Cl)ccc2Cl)c1,5.76
2,CN(C)C(N(C)C)=S(I)c1ccc(Cl)cc1[N+](=O)[O-] (configuration not stated),-0.09
3,Oc1ccc(Cl)c2ccccc12,3.94
4,CCCCCCCCO,3
5,Cc1cccc2cccnc12,2.6
6,NC(=O)c1ccc2[nH]ccc2c1,0.87
7,O=C1CCC(=O)N1c1cccc([N+](=O)[O-])c1,0.38
8,NNC(=O)c1ccnc(Cc2ccccc2)c1,1.01
9,CC(=O)Oc1ccc(C)cc1,2.11
10,CSc1cccc(NC(N)=O)c1,1.57
11,N#Cc1ccc(S(N)(=O)=O)cc1,0.23
12,c1ccc(C23CCN(CC2)CC3)cc1,2.54
13,O=C1CCCCCCCN1,0.67
14,NC(=O)N(CCCl)N=O,0.57
15,COc1ccc(-c2cc3cnccc3[nH]2)c(OC)c1,3.5
16,CCCC(C)(C)c1ccc(C2CCCC(O)C2)c(O)c1 (configuration not stated),4.82
17,CCC(Oc1ccccc1)C(=O)N[C@@H]1C(=O)N2[C@@H]1SC(C)(C)[C@@H]2C(=O)O (some centres not stated),2.65
18,CCCCCCOc1ccc(NC(=O)OCCN2CCCCC2)cc1,5.41
19,OCC(F)(F)F,0.41
20,FC(F)(F)Oc1ccccc1,3.17
21,O=P(c1ccccc1)(c1ccccc1)c1ccccc1,2.83
22,FC(F)(F)c1cccc(C2CNCCO2)c1 (configuration not stated),2.18
23,NC(=O)c1ccc(N)cc1,-0.41
24,C=C1C(=O)OC2CC(C)C3C=CC(=O)C3(C)C(OC(=O)CC(=O)OC3C4C(=C)C(=O)OC4CC(C)C4C=CC(=O)C43C)C12 (configuration not stated),1.33

row,Compound,logP
1,c1ccoc1,1.34
2,NCCc1ccc(O)c(O)c1,-0.98
3,CCCOC(=O)c1ccccc1,3.01
4,CC(Br)C(=O)O (configuration not stated),0.92
5,CCN(CC)CCNC(=O)c1cc([N+](=O)[O-])c(N)cc1OC,2.11
6,COc1ccccc1NCC(N)=O,0.78
7,CCCCOCCO,0.83
8,CN(C)O,-1.15
9,CC(C)CO,0.76
10,Cc1cccc(C=C(C(N)=O)C(N)=O)c1,0.4
11,CCCCCOc1cc(N)ccc1C(=O)O,2.38
12,C#C[C@]1(O)CC[C@H]2[C@@H]3CCC4=CC(=O)CC[C@]4(C)[C@H]3CC[C@@]21C,3.11
13,O=NN1CCNCC1,0.18
14,CC(=O)c1ccccc1Cl,2.09
15,CNC(=O)Oc1cccc2c1OC(C)(C)O2,1.7
16,CC1(C)OC(=O)c2ccccc21,1.73
17,CC(=O)OCC(=O)[C@@]1(O)[C@@H](C)C[C@H]2[C@@H]3CCC4=CC(=O)C=C[C@]4(C)[C@@]3(F)[C@@H](O)C[C@@]21C,2.77
18,COc1ccc(CC(C)N)cc1 (configuration not stated),1.77
19,O=C1NC(=S)NC(=O)C1C(=O)Nc1ccccc1,0.14
20,NNc1ccc([N+](=O)[O-])cc1,1.41
21,c1ccc(N=Nc2ccccc2)cc1,3.82
22,O=C(COc1ccccc1)N1CCOCC1,0.74
23,c1cnccn1,-0.26
24,c1ccc(-c2cnc(-c3ccccc3)o2)cc1,4.67

row,Compound,logP
1,CC(=O)Nc1ccc(C=O)cc1,1.25
2,c1ccc(-c2ccncn2)cc1,1.92
3,c1ccc2nc3ccccc3cc2c1,3.4
4,O=C(CN1CCCCC1)Nc1ccc(Br)cc1,3.57
5,O=C(O)CCCc1c[nH]c2ccccc12,2.3
6,CCOC(=O)C(=Cc1ccc(Br)cc1)C(=O)OCC,4.02
7,COCC(C)OC (configuration not stated),-0.09
8,CCC(C)OC(C)=O (configuration not stated),1.72
9,O=C(Nc1ccccc1)N(c1ccccc1)c1ccccc1,3.28
10,CCC1(CC)C(=O)NC(=O)N(C(C)C)C1=O,2.36
11,Cc1c[nH]cn1,0.23
12,COC(=O)Cc1ccsc1,1.46
13,CC/C(=C\c1ccccc1)[N+](=O)[O-],2.86
14,NNC(=O)c1ccc(Cl)cc1,1.18
15,CCCCOCCCC,3.21
16,CCC1CCCCN1C(=O)COC(=O)c1ccccc1 (configuration not stated),2.62
17,FC(Cl)Cl,1.55
18,CN1CCc2cccc3c2[C@H]1Cc1ccc(O)c(O)c1-3,2.3
19,Nc1ccc2nc3ccccc3cc2c1,2.62
20,O=C1OC2(CCCC2)c2ccccc21,2.56
21,Cc1cc2[nH]c(=O)c(=O)[nH]c2cc1C,1.34
22,CCC1(CC)C(=O)NC(=O)N(C)C1=O,1.15
23,C/C=N/O,-0.13
24,O=C(NC(CO)C(O)c1ccc(I)cc1)C(Cl)Cl (configuration not stated),2.22

row,Compound,logP
1,COc1ccc2nc(N)[nH]c2c1,0.57
2,O=C(O)c1cccc(O)c1O,1.2
3,OCCCCc1cccnc1,0.92
4,CC1(C)CCCC(C)(C)N1,2.15
5,CC(=O)Oc1cccc2ccccc12,2.78
6,CNP(=O)(OC)Oc1ccccc1Cl (configuration not stated),1.61
7,CCOC(=O)c1ccccn1,0.87
8,Cc1ccc([N+](=O)[O-])cc1,2.37
9,Cc1ccc(C)o1,2.24
10,Cc1cc2c(cc1C)C(=O)C=CC2=O,2.49
11,Nc1nc(N)nc(-c2cccc([N+](=O)[O-])c2)n1,1.57
12,N#CC#N,0.07
13,CCOC(=O)CN(C(=O)CCl)c1c(CC)cccc1CC,3.6
14,COC(=O)CCc1ccccc1,2.32
15,CCc1cccc(S(I)=C(N(C)C)N(C)C)c1 (configuration not stated),0.34
16,Nc1ccc(Cl)cc1C(=O)O,1.57
17,CC1=CC(=O)c2ccccc2C1=O,2.2
18,CC(C)NCc1cccnc1,0.82
19,Nc1nncc2ccccc12,0.82
20,OCC=Cc1ccccc1,1.95
21,CNC(=O)Oc1cccc(C(C)(C)C)c1,2.93
22,CN(C)C(N(C)C)=S(I)c1cc(Cl)cc(Cl)c1 (configuration not stated),0.52
23,CNc1nc2ccccc2o1,1.82
24,O=Cc1c[nH]c2ccccc12,1.68

row,Compound,logP
1,CCCCCCc1ccncc1,4.35
2,Nc1ccnc2ccccc12,1.63
3,O=C1C=C(N2CC=CC2)C(=O)c2ccccc21,2.85
4,CC#CC,1.46
5,CNC(=O)Oc1cc(C)c(SC)c(C)c1,2.92
6,Cc1ccc(CC(=O)O)cc1,1.86
7,Cc1ccco1,1.85
8,Cc1ccccn1,1.11
9,c1ccc(N2CCOCC2)cc1,1.36
10,CCOc1cccc2cccnc12,2.25
11,CC1(O)CC23C(O)C1CCC2(O)C(C)(O)C1C2OC2C(C)(C)C1(O)C(O)C3O (configuration not stated),-0.57
12,C[C@H](N[C@H](CCc1ccccc1)C(=O)O)C(=O)N1CCC[C@H]1C(=O)O,-0.74
13,CC(=O)Oc1cccc([N+](=O)[O-])c1,1.82
14,CN(CC(C)(C)C)N=O,1.34
15,Clc1ccc(Cl)nc1,2.4
16,O=C(O)COc1cccc(Br)c1,2.22
17,COc1ccc(C(c2ccc(OC)cc2)C(F)(F)F)cc1,4.76
18,Clc1ccc(Cl)cc1,3.44
19,NCCc1ccncc1,-0.01
20,O=C(CNC(=O)c1ccccc1)Oc1ccccc1,2.31
21,NCCCNC(=O)c1ccccc1,0.3
22,O=C(Nc1ccc(Cl)c(Cl)c1)C1CC1,3.83
23,FC(F)(F)c1ccc(C(F)(F)F)cc1,3.83
24,COc1ccccc1NC(=O)Nc1ccccc1OC,2.98

row,Compound,logP
1,Cc1c[nH]c(=O)[nH]c1=O,-0.62
2,CCCCC(NC(C)=O)C(=O)OC (configuration not stated),0.79
3,CC1CN1C1=C(F)C(=O)C(N2CC2C)=C(F)C1=O (configuration not stated),1.61
4,C=CC(N)=O,-0.67
5,CN(CC(F)(F)F)N=Nc1ccc(C(N)=O)cc1,1.86
6,CC(C)c1ccc(O)cc1,2.9
7,CCCCOc1cc(C(=O)NCCN(CC)CC)c2ccccc2n1,4.4
8,CCC(=O)CC,0.99
9,COc1ccc(C(C)=O)c(OC)c1OC,1.63
10,COc1ccccc1Oc1ccccc1,2.92
11,O=C1CC(Sc2ccccc2)N1 (configuration not stated),1.58
12,CC(=O)c1ccccc1C(=O)O,0.81
13,CC(=O)Nc1cccnc1,0.41
14,C[C@]12CCC(=O)C=C1CC[C@@H]1[C@@H]2CC[C@@]2(C)[C@H]1CC[C@]2(C)O,3.36
15,COC(=O)CC(C)C,1.82
16,CN(C)C(=O)OCc1ccc(OC(=O)N(C)C)cc1,1.59
17,O=C(O)Cc1ccccc1F,1.5
18,COC(=O)c1ccco1,1
19,CC12C=CC(=O)C=C1CCC1C2C(O)CC2(C)C1CCC2(O)C(=O)COC1OC(CO)C(O)C(O)C1O (configuration not stated),0.27
20,c1ccc(SSc2ccccc2)cc1,4.41
21,CCC(C)C(NC(=O)C(CCC(=O)O)NC(C)=O)C(=O)NC(Cc1ccccc1)C(N)=O (stereo not drawn) (Ac-Glu-Ile-Phe-NH2; configuration not given here),0.43
22,CC(=O)Nc1cccc2cccnc12,1.91
23,C[C@]12CC[C@H](O)CC1=CC[C@@H]1[C@@H]2CC[C@]2(C)C(=O)CC[C@@H]12,3.23
24,CNC(=S)NC,-0.24

row,Compound,logP
1,CN(C)C(N(C)C)=S(I)c1ccccc1[N+](=O)[O-] (configuration not stated),-0.92
2,Cc1cc(=O)oc2cc(O)ccc12,1.9
3,O=c1cccccc1O,0.53
4,O=C(CN1CCCCC1)Nc1ccccc1F,2.16
5,NS(=O)(=O)c1cc2c(cc1Br)NCNS2(=O)=O,0.08
6,CC(=O)Oc1ccccc1I,2.55
7,CCOC(=O)c1ccc(NC(=O)N(C)OC)cc1,2.24
8,CCCNc1nc(NC)nc(SC(F)F)n1,3.28
9,O=C(Nc1ccn(C2OC(CO)C(O)C2O)c(=O)n1)c1ccccc1 (configuration not stated),0.3
10,CNc1ncnc2c1ncn2C1CC(O)C(CO)O1 (configuration not stated),-0.19
11,Nc1ccc(Cl)c([N+](=O)[O-])c1,2.06
12,O=C(CN1CCCCC1)Nc1ccc(I)cc1,3.9
13,CN(C)C(=O)Nc1ccc(C2CCCCC2)cc1,3.83
14,O=S(=O)(Nc1ccccc1)c1ccccc1,2.58
15,N#Cc1cccc(CC(=O)O)c1,1.18
16,CC12CCC(O)CC1CCC1C2CCC2(C)C(C3=CC(=O)OC3)C(O)CC12O (configuration not stated),1.6
17,O=[N+]([O-])c1ccc(C=NO)o1,0.3
18,O=S(=O)(Nc1ccc(-c2ccccc2)cc1)C(F)(F)F,4.97
19,CC1(O)CC23CC(O)C4(O)C(CC(O)C4(C)C)C(C)(O)C2CCC1C3O (configuration not stated),0.27
20,CCCCC1(c2ccncc2)CCC(=O)NC1=O (configuration not stated),1.68
21,COc1ccc(C(C#N)C(C)C)cc1 (configuration not stated),2.68
22,CC(C(c1ccccc1)c1ccccc1)[N+](=O)[O-] (configuration not stated),3.91
23,CCCCC(=O)Nc1ccccc1,2.61

# Source: the OPERA property sets (Mansouri et al. 2018)
